Results taken from patent US20230079439A1, “Compositions and Methods for Enhancing Beta Cell Maturation, Health and Function” (THE REGENTS OF THE UNIVERSITY OF CALIFORNIA, priority 2016, published 2023).
Ends that are not written are not given here.

Tested on: INS-1E cells
Experiment: Glucose-stimulated insulin secretion (GSIS) in INS-1E cells
Assay type: cell-based, rat
Experimental: FIG. 3, comprising FIG. 3A through FIG. 3D, depicts the evaluation of the biological activity of HSA-112 in INS-1E cells. FIG. 3A depicts a dose-response analysis of the effect of HSA-112 on the rate of insulin secretion in INS-1E cells. The INS-1E cells were grown and treated with increasing doses of HSA-112 for 24 h, as described in Methods. Subsequently, cells were mixed with different concentrations of HSA-112, as indicated in the graph (red columns), PEG2000 (green columns), and free peptide (blue columns) and were seeded in 12-well plates. After 24 h the cells were taken to a GSIS in the presence of 2.5 mM (weak color bars) or 16.7 mM (strong color bars) glucose. FIG. 3B depicts the time-course analysis of the effect of HSA-112 on the rate of insulin secretion in INS-1E cells. The INS-1E cells were prepared for the experiment as described above with 50 μM of HSA-112, PEG2000, or free peptide. After incubation, as indicated in the graph, the cells were taken to a GSIS as described above. FIG. 3C depicts the cell protective effect of HSA-112 under oxidative stress conditions. Cells were prepared for the experiment as described in Methods. Trolox was used as a positive control at a concentration of 100 μM. The oxidative stress was induced in the tissue culture, as described in Methods. Standard MTT analysis (also described in Methods) was used for evaluating the effect of HSA-112 on cell viability. FIG. 3D depicts INS-1E cell proliferation. Cells were prepared for the experiment as described above. After 24 h the cells were colored by trypan blue and counted as described in Methods *p<0.05, n=6. MEAN±SE.
FIG. 7, comprising FIG. 7A through FIG. 7G, depicts the evaluation of the biological activity of HSA-28P in INS-1E cells. FIG. 7A depicts dose-response analysis of the effect of HSA-28P on the rate of insulin secretion in INS-1E cells. The INS-1E cells were grown and trypsinized as described in Methods. Subsequently, cells were mixed with the indicated concentrations of HSA-28P (red columns), non-relevant peptide nanoparticles (NRPNP, green columns), and naked nanoparticles (NP, blue columns) and were seeded in 12-well plates. After 24 h the cells were taken to a GSIS in the presence of 2.5 mM (weak color bars) or 16.7 mM (strong color bars) glucose. FIG. 7B depicts time-course analysis of the effect of HSA-28P on the rate of insulin secretion in INS-1E cells. The INS-1E cells were prepared for the experiment as described above with 1.34 μM of both HSA-28P or NRPNP, and 0.76 μg/ml of NP. After incubation for the time indicated in the graph, the cells were taken to a GSIS as described in Methods. FIG. 7C depicts the measurement of insulin content. The RIA-assay was performed for INS-1E lysates. FIG. 7D depicts the Effect of HSA-28P on the cells viability under oxidative stress conditions. INS-1E cells were incubated for 24 h with a medium supplemented with HSA-28P (3 μM), or HSA-28P1/2 (1.5 μM), or NPs covered by phantom random peptide (PPNP, 3 μM), or NP (0.76 μg/ml), or HSA-28 (3 μM) and trolox, as a positive antioxidant control (1 mM). After the incubation time, 50 mU/ml of glucose oxidase (GO) was added for an additional 1.15 h. Upon completion of the experiments, a standard MTT assay was conducted as described in Methods. Cell viability is presented as a percentage in comparison to non-treated cells. FIG. 7E depicts the effect of HSA-28P on the cell proliferation rate. Experiments were conducted on INS-1E cells that were seeded in 6-well plates. INS-1E cells were treated as described in Panel D. Cells were detached by trypsin and counted as described in Methods and then were visualized with a Cells Sense Live Imaging microscope. FIG. 7F depicts light microscope images of untreated cells. FIG. 7G depicts light microscope images of cells that were treated with HSA-28P. *p<0.05, n=3. MEAN±SE. […]

## HSA-112: HSA-28 dimer formed by bridging two HSA-28 monomers via amide bond formation with active ester PEG2,000 (QQGEFLNYD-NH2; not fully specified (N-terminus); also: dimer of two HSA-28 monomers bridged via amide bonds with active ester PEG2000)
50 μM
  duration of the increase in insulin secretion: 24 h
  time after which a significant increase in insulin secretion was induced: 6 h
  time of maximal stimulatory effect: 18 h
50 μM, after 18 h
  maximal stimulatory effect on GSIS parameters: twofold elevation of GSIS parameters
INS-1E cells, 2.5 mM or 16.7 mM glucose
  effect on GSIS: dose-dependently increased GSIS
